Test [1] has as its target T1, FXR receptor (Homo sapiens, UniProt Q96RI1).
T1 construct: Prepared 2× GST-labeled FXR-LBD/anti-GST Eu mixture to the required volume, the concentration of GST-FXR-LBD was 6 nM; purchased Life Technology Invitrogen PV4835
T1 sequence (Q96RI1 262-486 limits assumed): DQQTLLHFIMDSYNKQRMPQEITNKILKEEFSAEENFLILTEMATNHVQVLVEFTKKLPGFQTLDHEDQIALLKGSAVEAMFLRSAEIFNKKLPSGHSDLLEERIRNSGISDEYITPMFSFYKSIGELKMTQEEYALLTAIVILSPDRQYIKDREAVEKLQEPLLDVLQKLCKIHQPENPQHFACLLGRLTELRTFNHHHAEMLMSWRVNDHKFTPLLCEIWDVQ
T1 sequence (Q15788 676-700 partner limits assumed): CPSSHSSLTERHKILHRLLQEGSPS
The experiment in a line: FXR receptor binding activity assay (TR-FRET; GST-FXR-LBD / SRC1 fragment). The format is biochemical. The following applies: FXR-LBD binding to SRC1 fragment, agonist rate. The source says:
FXR Receptor Binding Activity Assay (Time-Resolved Fluorescence Detection Method TR-FRET Method)
To test the effect of the present compounds on FXR receptor binding, we selected the commercial FXR receptor binding activity assay kit to test the effect of the compounds on FXR and its binding protein fragments (LBD structural domain binds to SRC1 fragment) (kit supplier: Life Technology Invitrogen Catalog: PV4835; cisbio Catalog: 610SAXLA and 61GSTKLA). Specific method was described in the kit instructions. The operation was as follows:
1. Prepared 2× GST-labeled FXR-LBD/anti-GST Eu mixture to the required volume, the concentration of GST-FXR-LBD was 6 nM, Eu was 50 nL/well.
2. Prepared 2× biotin-labeled SRC1/[…] (SA-APC) mixture to the required volume, the concentration of SRC1 was 1000 nM, and […] was 50 nL/well.
3. 2× GST-FXR/Eu and SRC1/SA-APC were mixed in a proportion of 1:1.
4. 20 μL of a mixture of GST-FXR/Eu and SRC1/SA-APC was added to a 384-well plate containing the compounds to be tested.
5. Centrifuged for 1 minute at 1000 rpm; incubated for 180 minutes at room temperature.
6. Time-resolved fluorescence detection: EnVision reader.
(1) the value at 665 nm divided by the value at 615 nm;
(2) calculating the agonist rate
Agonist rate=(X−Min)/(Max−Min)*100% • X represents the 665/615 value for each concentration; • Min represents the 665/615 value without adding compound; • Max represents the 665/615 value of the reference compound.

In test [2] the target is T2, FXR (Homo sapiens, UniProt Q96RI1).
T2 sequence (Q96RI1 262-486 limits assumed): T1 sequence (Q96RI1 262-486 limits assumed)
The experiment in a line: FXR reporter gene expression test (dual luciferase, FXR Gal4 reporter in HepG2 cells). Type of test: cell-based. The following applies: HepG2 cells transiently transfected with FXR Gal4 reporter, 18 hours. The source says: FXR Reporter Gene Expression Test
To analyze the effect of testing compounds on FXR-regulated gene expression, we used Promega's dual luciferase assay system (Promega #E1980) to detect the effect of the compounds on the FXR reporter gene in HepG2 hepatoma cell line (ATCC #HB-8065), which was transiently transfected with the FXR Gal4 reporter gene fragment. Specific experimental methods are as follows:
1. HepG2 Cell Culture and Maintenance
Cells were digested and cells with appropriate density were grown in 10 mL complete medium and then cultivated for 24 hours under 37° C., 5% CO2 humidity conditions.
2. Cell planting and transfection. Transfection reagent was Fugene HD (Promega#E231A)
(1) The transfection mixture was prepared according to the following table
(2) The mixture in the tube was vigorously mixed and incubated at room temperature for 15 minutes;
(3) The cells were digested in the culture dish and counted;
(4) The cell suspension was diluted to the desired volume of 600,000/mL (96-well plates 100 μL/well);
(5) The required volume of the transfection mixture was added to the cell suspension, followed by plating at 100 μL/well;
(6) Incubated for 24 hours under 37° C., 5% CO2 humidity conditions.
3. Treatment of the Compound
(1) 10 mM of mother liquor of the compound was prepared and then serially diluted 3 times with DMSO;
(2) 10 μL of compound was added to 90 μL of complete medium (10×);
(3) 5 μL of the solution of the compound (21×) was added to each well;
(4) Incubated for 18 hours under 37° C., 5% CO2 humidity conditions.
The firefly luciferase and the renilla luciferase signal (Promega #E1980) were detected by Promega's dual-luciferase assay system.
(2) Calculating the agonist rate
Agonist rate=(X−Min)/(Max−Min)*100% • X represents the F/R value of each concentration; • Min represents the F/R value without adding compound; • Max represents the F/R value of the reference compound.
(3) EC50 was calculated according to GraphPrism 5.0

As for `CC[C@H]1[C@@H](O)C2C3CCC([C@H](C)CC4SC(=O)NC4=O)[C@@]3(C)CCC2[C@@]2(C)CC[C@@H](O)C[C@@H]12` (single isomer, unassigned) [Example 14-α], the EC50 in test [1] is 0.013 µM; in test [2], 0.063 µM. Consider `CC[C@@H]1[C@@H]2[C@@H](F)[C@H](O)CC[C@]2(C)C2CC[C@@]3(C)C(CCC3[C@H](C)CCC(=O)O)C2[C@@H]1O` (stereo partly drawn) [Example 1, (4R)-4-((3R, 4R, 5S, 6R, 7R, 10R, 13R)-6-ethyl-4-fluoro-3,7-dihydroxy-10,13-dimethylhexadecahydro-1H-cyclopenta[a]phenanthrene-17-yl)pentanoic acid], for which the results for the EC50 in test [1] and in test [2] were 0.214 µM and 2.6 µM, respectively. In the same order, the values of `CC[C@H]1[C@@H](O)C2C3CCC([C@H](C)CCC(=O)NO)[C@@]3(C)CCC2[C@@]2(C)CC[C@@H](O)C[C@@H]12` (stereo partly drawn) [Example 2, (4R)-4-((3R,5S,6R,7R,10S,13R)-6-ethyl-3,7-dihydroxy-10,13-dimethylhexadecahydro-1H-cyclopenta[a]phenanthrene-17-yl)-N-hydroxypentanamide] are 0.167 µM and 3.39 µM. For `CC[C@H]1[C@@H](O)C2C3CCC([C@H](C)CCC(=O)NC#N)[C@@]3(C)CCC2[C@@]2(C)CC[C@@H](O)C[C@@H]12` (stereo partly drawn) [Example 3, (4R)-N-cyano-4-((3R, 5S, 6R, 7R, 10S, 13R)-6-ethyl-3,7-dihydroxy-10,13-dimethylhexadecahydro-1H-cyclopenta[a]phenanthrene-17-yl)pentanamide], the figures for the EC50 in test [1] and in test [2] were 0.016 µM and 2.53 µM, respectively. Take `CC[C@H]1[C@@H](O)C2C3CCC([C@H](C)CCC(=O)NOC)[C@@]3(C)CCC2[C@@]2(C)CC[C@@H](O)C[C@@H]12` (stereo partly drawn) [Example 4, (4R)-4-((3R,5S,6R,7R,10S,13R)-6-ethyl-3,7-dihydroxy-10,13-dimethylhexadecahydro-1H-cyclopenta[a]phenanthrene-17-yl)-N-methoxypentanamide]: the figures for the EC50 in test [1] and in test [2] were 0.054 µM and 1.06 µM, respectively. In test [1], `CC[C@H]1[C@@H](O)C2C3CCC([C@H](C)CCC(=O)NCS(=O)(=O)O)[C@@]3(C)CCC2[C@@]2(C)CC[C@@H](O)C[C@@H]12` (stereo partly drawn) [Example 5, ((4R)-4-((3R,5S,6R,7R,10S,13R)-6-ethyl-3,7-dihydroxy-10,13-dimethylhexadecahydro-1H-cyclopenta[a]phenanthrene-17-yl)pentanoylamino) methanesulfonic acid] gave an EC50 of 0.031 µM. In the case of `CC[C@H]1[C@@H](O)C2C3CCC([C@H](C)CCC(=O)NCP(=O)(O)O)[C@@]3(C)CCC2[C@@]2(C)CC[C@@H](O)C[C@@H]12` (stereo partly drawn) [Example 6, (((4R)-4-((3R,5S,6R,7R,10S,13R)-6-ethyl-3,7-dihydroxy-10,13-dimethylhexadecahydro-1H-cyclopenta[a]phenanthrene-17-yl)pentanoylamino)methyl)phosphonic acid], the EC50 in test [1] worked out at 1.27 µM. In test [1], `CC[C@H]1[C@@H](O)C2C3CCC([C@H](C)CCC(=O)NCCP(=O)(O)O)[C@@]3(C)CCC2[C@@]2(C)CC[C@@H](O)C[C@@H]12` (stereo partly drawn) [Example 7, (2-((4R)-4-((3R,5 S,6R,7R,10S,13R)-6-ethyl-3,7-dihydroxy-10,13-dimethylhexadecahydro-1H-cyclopenta[a]phenanthrene-17-yl)pentanoylamino)ethyl) phosphonic acid] gave an EC50 of 0.552 µM. As for `CC[C@H]1[C@@H](O)C2C3CCC([C@H](C)CCC(=O)NOCCO)[C@@]3(C)CCC2[C@@]2(C)CC[C@@H](O)C[C@@H]12` (stereo partly drawn) [Example 8, (4R)-4-((3R, 5S, 6R, 7R, 10S, 13R)-6-ethyl-3,7-dihydroxy-10,13-dimethylhexadecahydro-1H-cyclopenta[a]phenanthrene-17-yl)-N-(2-hydroxyethoxy)pentanamide], the EC50 in test [1] turned out to be 0.228 µM; in test [2], 3.37 µM. As for `CC[C@H]1[C@@H](O)C2C3CCC([C@H](C)CCc4n[nH]c(=O)o4)[C@@]3(C)CCC2[C@@]2(C)CC[C@@H](O)C[C@@H]12` (stereo partly drawn) [Example 10, 5-((3R)-3-((3R,5S,6R,7R,10S,13R)-6-ethyl-3,7-dihydroxy-10,13-dimethylhexadecane-1H-cyclopenta[a]phenanthrene-17-yl)butyl)-1,3,4-oxadiazol-2 (3H) -one], the figures for the EC50 in test [1] and in test [2] were 0.061 µM and 1.4 µM, respectively. As to `CC[C@H]1[C@@H](O)C2C3CCC([C@H](C)CCc4nnc[nH]4)[C@@]3(C)CCC2[C@@]2(C)CC[C@@H](O)C[C@@H]12` (stereo partly drawn) [Example 11, (3R,5S,6R,7R,10S,13R)-17-((R)-4-(4H-1,2,4-triazol-3-yl)butan-2-yl)-6-ethyl-10,13-dimethylhexadecahydro-1H-cyclopenta[a] phenanthrene-3,7-diphenol], the figures for the EC50 in test [1] and in test [2] were 0.366 µM and 5.2 µM, respectively. Take `CC[C@H]1[C@@H](O)C2C3CCC([C@H](C)CCc4noc(=O)[nH]4)[C@@]3(C)CCC2[C@@]2(C)CC[C@@H](O)C[C@@H]12` (stereo partly drawn) [Example 12, 3-((3R)-3-((3R, 5S, 6R, 7R, 10S, 13R)-6-ethyl-3,7-dihydroxy-10,13-dimethylhexadecahydro-1H-cyclopenta[a]phenanthrene-17-yl)butyl)-1,2,4-oxadiazol-5(4H)-one]: the EC50 in test [1] is 0.052 µM; in test [2] it was 1.36 µM.

For the compound `CC[C@H]1[C@@H](O)C2C3CCC([C@H](C)CCc4nnc(C(=O)O)o4)[C@@]3(C)CCC2[C@@]2(C)CC[C@@H](O)C[C@@H]12` (stereo partly drawn) [Example 13, 5-((3R)-3-((3R, 5S, 6R, 7R, 10S,13R)-6-ethyl-3,7-dihydroxy-10,13-dimethylhexadecahydro-1H-cyclopenta[a]phenanthrene-17-yl)butyl) -1,3,4-oxadiazole-2-carboxylic acid], the EC50 was determined as 0.283 µM in test [1] and 5.2 µM in test [2]. In test [1], `CCOC(=O)c1nnc(CC[C@@H](C)C2CCC3C4C(CC[C@@]32C)[C@@]2(C)CC[C@@H](O)C[C@H]2[C@@H](CC)[C@H]4O)o1` (stereo partly drawn) [Example 13-ii] showed an EC50 of 0.07 µM. With `C[C@H](CC1SC(=O)NC1=O)C1CCC2C3C(CC[C@@]21C)[C@@]1(C)CC[C@@H](O)C[C@H]1C[C@H]3O` (stereo partly drawn) [Example 15-α, 5-((2R)-2-((3R,5 S,7R,10S,13R)-3,7-dihydroxy-10,13-dimethylhexadecahydro-1H-cyclopenta[a]phenanthrene-17-yl)propyl)thiazolidine-2,4-dione], a half-maximal effect in test [1] (EC50) was put at 0.143 µM. Turning to `C[C@H](CC1SC(=O)NC1=O)C1CCC2C3C(CC[C@@]21C)[C@@]1(C)CC[C@@H](O)C[C@H]1C[C@H]3O` (stereo partly drawn) [Example 15-β, 5-((2R)-2-((3R,5 S,7R,10S,13R)-3,7-dihydroxy-10,13-dimethylhexadecahydro-1H-cyclopenta[a]phenanthrene-17-yl)propyl)thiazolidine-2,4-dione], the EC50 in test [1] is 0.312 µM; in test [2], 3.37 µM.

The EC50 is the concentration at which the effect is half-maximal. A higher EC50 goes with weaker potency.

The values above are taken from US20180148470A1, “CHOLIC ACID DERIVATIVE, AND PREPARATION METHOD AND MEDICAL USE THEREOF” (Jiangsu Hansoh Pharmaceutical Group Co., Ltd., priority 2015, published 2018).
